Laboratory results reported in ChEMBL document CHEMBL1127021, “Structure-activity relationship of a series of phenylureas linked to 4-phenylimidazole. Novel potent inhibitors of acyl-CoA:cholesterol O-acyltransferase with antiatherosclerotic activity. 2” (J Med Chem, 1993).

Key:
[1] = target: T1, Acyl-CoA:cholesterol acyltransferase (Oryctolagus cuniculus, UniProt Q95214); experiment: Inhibition against acyl coenzyme A:cholesterol acyltransferase derived from rabbit aorta homogenate; assay type: tissue-based
T1 sequence (Q95214 whole entry): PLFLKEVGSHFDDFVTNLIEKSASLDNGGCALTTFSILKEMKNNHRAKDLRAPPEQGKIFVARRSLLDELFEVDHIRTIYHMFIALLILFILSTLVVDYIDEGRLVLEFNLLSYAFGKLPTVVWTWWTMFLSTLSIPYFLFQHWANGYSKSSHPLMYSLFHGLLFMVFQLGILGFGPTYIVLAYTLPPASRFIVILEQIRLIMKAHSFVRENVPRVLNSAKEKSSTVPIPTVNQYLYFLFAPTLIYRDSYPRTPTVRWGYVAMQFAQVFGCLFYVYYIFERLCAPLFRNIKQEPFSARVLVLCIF

Rattus norvegicus [2] = experiment: Cholesterol lowering activity in rats after a dose of 4 mg/kg once a day for 2 days; assay type: functional
Rattus norvegicus [3] = experiment: Cholesterol lowering activity in rats after a dose of 1 mg/kg once a day for 2 days; assay type: functional
O-acyltransferase = O-acyltransferase (Oryctolagus cuniculus, UniProt G1SFD9); experiment: Inhibition against acyl coenzyme A:cholesterol acyltransferase derived from rabbit intestine microsomes
O-acyltransferase, sequence (G1SFD9 1-524): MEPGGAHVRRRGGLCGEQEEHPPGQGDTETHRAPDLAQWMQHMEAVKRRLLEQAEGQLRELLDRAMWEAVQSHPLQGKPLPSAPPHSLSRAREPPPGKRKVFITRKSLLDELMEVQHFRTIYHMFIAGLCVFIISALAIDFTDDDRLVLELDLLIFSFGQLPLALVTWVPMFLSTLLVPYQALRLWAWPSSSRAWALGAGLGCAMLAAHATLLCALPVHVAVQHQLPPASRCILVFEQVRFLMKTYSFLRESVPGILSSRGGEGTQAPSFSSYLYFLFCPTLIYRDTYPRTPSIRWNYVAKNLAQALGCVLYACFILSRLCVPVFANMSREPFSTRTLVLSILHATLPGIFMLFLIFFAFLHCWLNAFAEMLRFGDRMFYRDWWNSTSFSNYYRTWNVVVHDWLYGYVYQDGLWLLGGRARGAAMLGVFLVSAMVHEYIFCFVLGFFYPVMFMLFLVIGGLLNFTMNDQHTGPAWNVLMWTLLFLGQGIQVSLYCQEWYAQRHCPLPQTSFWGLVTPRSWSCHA

Row | Compound | IC50 [1] [µM] | Cholesterol reduction (Rattus norvegicus [2]) [%] | Cholesterol reduction (Rattus norvegicus [3]) [%] | IC50 (O-acyltransferase) [µM]
1 | CCCCCNC(=O)Nc1c(C)cccc1OCCCn1cnc(-c2ccccc2)c1CO | 0.2 | -55 | -29 | 0.21
2 | Cc1cccc(OCCCn2cnc(-c3ccccc3)c2C)c1NC(=O)NC1CCCCC1 | 0.18 | -53 | -42 | 0.1
3 | CCCCCNC(=O)Nc1c(OC)cccc1OCCCn1cnc(-c2ccccc2)c1C | 0.22 | -34 |  | 0.09
4 | Cc1cccc(OCCCn2cnc(-c3ccccc3)c2)c1NC(=O)NCCC(C)C | 0.37 |  | -41 | 0.23
5 | CCCCCNC(=O)Nc1c(C)cccc1OCCCn1cnc(-c2ccccc2)c1Cl | 0.084 |  | -41 | 
6 | Cc1cccc(OCCCn2cnc(-c3ccccc3)c2Cl)c1NC(=O)NCCC(C)C | 0.088 |  | -59 | 0.14
7 | CCCCCNC(=O)Nc1c(NS(C)(=O)=O)cccc1OCCCn1cnc(-c2ccccc2)c1C | 0.48 | 3.6 |  | 0.14
8 | CCCCNC(=O)Nc1c(C)cccc1OCCCn1cnc(-c2ccccc2)c1CO | 0.59 |  | -21 | 0.19
9 | CCCCCNC(=O)Nc1c(NC)cccc1OCCCn1cnc(-c2ccccc2)c1C | 0.6 | -35 |  | 0.15
10 | CCCCCNC(=O)Nc1c(C)cccc1OCCCn1cnc(-c2ccccc2)c1CS(C)(=O)=O | > 1 |  |  | 0.41
11 | CCCCCNC(=O)Nc1c(CC)cccc1OCCCn1cnc(-c2ccccc2)c1C | 0.044 | -60 | -51 | 0.08
12 | CCCCCNC(=O)Nc1c(Cl)cccc1OCCCn1cnc(-c2ccccc2)c1C | 0.1 | -49 |  | 0.073
13 | CCCCCNC(=O)Nc1c(C)cccc1OCCCn1cnc(-c2ccc(Cl)cc2)c1 | 0.26 | -59 | -43 | 0.12
14 | CCc1c(-c2ccccc2)ncn1CCCOc1cccc(C)c1NC(=O)NCC(C)(C)C | 0.068 |  | -55 | 0.46
15 | CCCCCNC(=O)Nc1c(C)cccc1OCCCn1cnc(-c2ccccc2NS(C)(=O)=O)c1 | 0.24 | -39 |  | 0.45
16 | CCCCCNC(=O)Nc1ccccc1OCCCn1cnc(-c2ccccc2)c1C | 0.39 | 3.9 |  | 0.23
17 | CCCCCNC(=O)Nc1c(C)cccc1CSCCn1cnc(-c2ccccc2)c1C | 0.07 | -11 |  | 0.57
18 | CCCCCNC(=O)Nc1c(C)cccc1[S+]([O-])CCCn1cnc(-c2ccccc2)c1C (stereo not drawn) | > 1 |  |  | > 1
19 | CCCCCNC(=O)Nc1c(OCCCn2cnc(-c3ccccc3)c2C)cccc1SC | 0.019 |  |  | 0.23
20 | CCCCCNC(=O)Nc1c(C)cccc1CS(=O)(=O)CCn1cnc(-c2ccccc2)c1C | 0.09 |  |  | > 1
21 | CCCCNC(=O)Nc1c(C)cccc1OCCCn1cnc(-c2ccccc2)c1C | 0.48 | -45 | -34 | 0.073

Row | Compound | IC50 [1] [µM] | Cholesterol reduction (Rattus norvegicus [2]) [%] | Cholesterol reduction (Rattus norvegicus [3]) [%] | IC50 (O-acyltransferase) [µM]
22 | CCCCNC(=O)Nc1c(C)cccc1OCCCn1cnc(-c2ccccc2)c1Cl | 0.21 |  | -40 | 0.055
23 | CCCCCNC(=O)Nc1c(O)cccc1OCCCn1cnc(-c2ccccc2)c1C | 0.96 |  |  | 0.46
24 | CCCCCNC(=O)Nc1c(OCCCn2cnc(-c3ccccc3)c2C)cccc1S(C)(=O)=O | 0.05 | -33 |  | 0.14
25 | CCCCCNC(=O)Nc1c(NS(=O)(=O)C(F)(F)F)cccc1OCCCn1cnc(-c2ccccc2)c1C | > 10 |  |  | > 1
26 | CCCCCNC(=O)Nc1c(CCC)cccc1OCCCn1cnc(-c2ccccc2)c1C | 0.098 | -50 | -34 | 0.17
27 | Cc1cccc(OCCCn2cnc(-c3ccccc3)c2C(C)C)c1NC(=O)NCCC(C)C | 0.019 |  | -40 | 0.28
28 | CCCCCNC(=O)Nc1c(C)cccc1OCCCn1cnc(-c2ccccc2)c1C(=O)O | > 1 |  |  | > 1
29 | CCCCCNC(=O)Nc1c(C)cccc1OCCCn1cnc(-c2cccc(NS(C)(=O)=O)c2)c1 | > 1 |  |  | > 1
30 | CCCCCNC(=O)Nc1c(C)cccc1OCCCn1cnc(-c2ccccc2)c1C(=O)OCC | 0.055 |  |  | 0.15
31 | CCCCCNC(=O)Nc1c(C)cccc1OCCCn1cnc(-c2ccccc2C)c1 | 0.1 | -48 | -25 | 0.26
32 | CCCCCNC(=O)Nc1c(C)cccc1OCCCn1cnc(-c2ccccc2)c1CN(C)C | 0.31 | -10 |  | 0.67
33 | Cc1cccc(OCCCn2cnc(-c3ccccc3)c2CO)c1NC(=O)NCCC(C)C | 0.19 |  | -52 | 0.23
34 | CCCCNC(=O)Nc1c(C)cccc1OCCCn1cnc(-c2ccccc2)c1 | 0.31 |  | -7 | 
35 | CCCCCNC(=O)Nc1c(C)cccc1OCCCn1cnc(-c2ccc([N+](=O)[O-])cc2)c1 | 0.56 | -33 | -31 | 0.07
36 | CCCCCNC(=O)Nc1c(C)cccc1OCCCn1cnc(-c2cccc([N+](=O)[O-])c2)c1 | 0.29 |  | -15 | 0.13
37 | CCc1c(-c2ccccc2)ncn1CCCOc1cccc(C)c1NC(=O)NCCC(C)C | 0.072 |  | -46 | 0.22
38 | CCCCCNC(=O)Nc1c(C)cccc1OCC(O)Cn1cnc(-c2ccccc2)c1C (stereo not drawn) | 0.17 | -43 |  | 0.16
39 | CCCCCNC(=O)Nc1c(C)cccc1C(=O)NCCn1cnc(-c2ccccc2)c1C | 0.28 | -25 |  | 0.097
40 | CCCCCNC(=O)Nc1c(F)cccc1OCCCn1cnc(-c2ccccc2)c1C | 0.071 | -30 |  | 0.069
41 | CCCCCNC(=O)Nc1c(OCCCn2cnc(-c3ccccc3)c2C)cccc1C(C)C | 0.045 | -59 | -40 | 0.071
42 | Cc1cccc(OCCCn2cnc(-c3ccccc3)c2)c1NC(=O)NCC(C)(C)C | 0.073 |  | -46 | 0.32

Row | Compound | IC50 [1] [µM] | Cholesterol reduction (Rattus norvegicus [2]) [%] | Cholesterol reduction (Rattus norvegicus [3]) [%] | IC50 (O-acyltransferase) [µM]
43 | CCCCCNC(=O)Nc1c(C)cccc1OCCCn1cnc(-c2cc(OC)c(OC)c(OC)c2)c1 | 0.9 |  |  | 0.51
44 | Cc1cccc(OCCCn2cnc(-c3ccccc3)c2C)c1NC(=O)NCC(C)(C)C | 0.14 |  | -64 | 0.21
45 | Cc1cccc(OCCCn2cnc(-c3ccccc3)c2Cl)c1NC(=O)NCC(C)(C)C | 0.048 |  | -43 | 0.2
46 | CCCCCCNC(=O)Nc1c(C)cccc1OCCCn1cnc(-c2ccccc2)c1C | 0.068 | -46 | -43 | 0.084
47 | CCCCCNC(=O)Nc1c(C)cccc1OCCCn1cnc(-c2ccc(NS(C)(=O)=O)cc2)c1 | > 1 |  |  | > 1
48 | CCCCCNC(=O)Nc1c(C)cccc1OCCCn1cnc(-c2ccccc2[N+](=O)[O-])c1 | 0.17 | -66 | -46 | 0.21
49 | CCCCCNC(=O)Nc1c(C)cccc1OCCCn1cnc(-c2c(OC)cc(OC)cc2OC)c1 | > 1 |  |  | > 1
50 | CCCCCNC(=O)Nc1c(C#N)cccc1OCCCn1cnc(-c2ccccc2)c1C | 1.9 |  |  | > 1
51 | CCCCCNC(=O)Nc1c(C)cccc1S(=O)(=O)CCCn1cnc(-c2ccccc2)c1C | 0.73 |  |  | 0.6
52 | CCCCCNC(=O)Nc1c(C)cccc1COCCn1cnc(-c2ccccc2)c1C | 0.1 | 2 |  | 0.88
53 | CCCCCNC(=O)Nc1c(OCCCn2cnc(-c3ccccc3)c2C)cccc1[N+](=O)[O-] | 0.06 | -52 |  | 0.044
54 | CCCCCNC(=O)Nc1c(CN(C)C)cccc1OCCCn1cnc(-c2ccccc2)c1C | 2.6 |  |  | 1.3
55 | CCCCCNC(=O)Nc1c(C)cccc1OCCCn1cnc(-c2ccc(F)cc2F)c1 | 0.12 | -48 | -23 | 0.29
56 | CCCCCNC(=O)Nc1c(N)cccc1OCCCn1cnc(-c2ccccc2)c1C | 0.59 | -21 |  | 0.1
57 | CCCCCNC(=O)Nc1c(C)cccc1OCCCn1cnc(-c2ccccc2)c1C(N)=O | > 1 |  | -20 | 0.18
58 | CCCCCNC(=O)Nc1c(C)cccc1OCCCn1cnc(-c2ccccc2S(C)(=O)=O)c1 | 0.41 | -19 |  | 0.16
59 | CCCCCNC(=O)Nc1c(C)cccc1SCCCn1cnc(-c2ccccc2)c1C | 0.086 | -7 |  | 0.077
60 | CCCCCNC(=O)Nc1c(C)cccc1OCCCn1cnc2c1CCc1ccccc1-2 | 0.22 | -56 | -30 | 0.22
61 | CCCCCNC(=O)Nc1c(C)cccc1C[S+]([O-])CCn1cnc(-c2ccccc2)c1C (stereo not drawn) | 0.44 |  |  | > 1
